Results from patent US20260158009A1 (GENZYME CORPORATION, priority 2023, published 2026).

How the values were obtained:
[1] = molecular target: T1, hRIPK1 (aa 1-375) fusion protein (Homo sapiens, UniProt Q13546); experiment: ADP-Glo kinase assay: catalytic activity of RIPK1 (autophosphorylation, conversion of ATP to ADP); format: biochemical
T1 construct: hRIPK1 (aa 1-375) fusion protein
T1 sequence (Q13546 1-375): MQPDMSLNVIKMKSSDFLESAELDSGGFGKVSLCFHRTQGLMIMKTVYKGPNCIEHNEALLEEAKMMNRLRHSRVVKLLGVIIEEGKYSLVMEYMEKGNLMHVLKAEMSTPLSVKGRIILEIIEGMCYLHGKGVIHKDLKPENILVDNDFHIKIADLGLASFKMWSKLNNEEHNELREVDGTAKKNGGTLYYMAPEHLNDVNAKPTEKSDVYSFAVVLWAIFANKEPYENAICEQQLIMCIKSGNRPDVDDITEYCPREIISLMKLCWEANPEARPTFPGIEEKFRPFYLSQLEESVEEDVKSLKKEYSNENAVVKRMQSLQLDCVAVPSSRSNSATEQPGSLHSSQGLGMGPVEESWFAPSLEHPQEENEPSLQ
Method in brief: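 The readout was ADP-Glo luminescence after a 240 min rt autophosphorylation reaction with 50 μM ATP, following 30 min preincubation of 3.6 μg/ml hRIPK1 (aa 1-375) fusion with compound at 33300-1.69 nM final in 1% DMSO. Values came from Levenberg-Marquardt nonlinear fits.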

U937 cells = experiment: Cellular assay in U937 cells: activity of RIPK1 inhibitors on TNFα/zVAD.fmk-induced cell death (necroptosis), CellTiter 96 AQueous (MTS) readout; format: cell-based; settings: Homo sapiens, U-937
Method in brief: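 Necroptosis was measured by viable-cell MTS reduction (4 h, absorbance 490 nm) after overnight (18–24 h) 37° C culture. Cell suspensions of U937 cells carried TNFα (100 ng/ml) plus zVAD.fmk (50 μM) before compound was added. A 10-point curve (10 μM–0.26 nM or 1 μM–0.07 nM) was run in duplicate, normalised to the control lacking TNFα/zVAD.fmk.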

SMILES | IC50 [1] | IC50 (U937 cells)
Cc1nc2c(Cl)cc(C[C@H]3CC[C@H](C(=O)N4OCC[C@H]4c4cncc(F)c4)CC3)cn2n1 [compound 382, [4-[(8-chloro-2-methyl-[1,2,4]triazolo[1,5-a]pyridin-6-yl)methyl]cyclohexyl]-[(3S)-3-(5-fluoropyridin-3-yl)-1,2-oxazolidin-2-yl]methanone] | 26 nM | 8 nM
N#Cc1cncc(C[C@H]2CC[C@H](C(=O)N3OCC[C@H]3c3cnccn3)CC2)c1 [compound 140, trans-5-[[4-[(3S)-3-pyrazin-2-ylisoxazolidine-2-carbonyl]cyclohexyl]methyl]pyridine-3-carbonitrile] | 40 nM | 173 nM
N#Cc1cc(F)cc([C@@H]2CCON2C(=O)[C@H]2CC[C@H](Cn3ncc4ncc(C(N)=O)cc43)CC2)c1 [compound 78, trans-1-((4-((S)-3-(3-cyano-5-fluorophenyl)isoxazolidine-2-carbonyl)cyclohexyl)methyl)-1H-pyrazolo[4,3-b]pyridine-6-carboxamide] | 40 nM | 72 nM
Cc1ncc(C[C@H]2CC[C@H](C(=O)N3OCC[C@H]3c3cnc(C)c(F)c3)CC2)c(C)n1 [compound 393, [4-[(2,4-dimethylpyrimidin-5-yl)methyl]cyclohexyl]-[(3S)-3-(5-fluoro-6-methylpyridin-3-yl)-1,2-oxazolidin-2-yl]methanone] | 51 nM | 33 nM
N#Cc1cnc2ccn(C[C@H]3CC[C@H](C(=O)N4OCC[C@H]4c4ccccn4)CC3)c2c1 [compound 188, trans-1-[[4-[(3S)-3-(2-pyridyl)isoxazolidine-2-carbonyl]cyclohexyl]methyl]pyrrolo[3,2-b]pyridine-6-carbonitrile] | 37 nM | 124 nM
N#Cc1cc(F)cc([C@@H]2CCON2C(=O)[C@H]2C[C@H](Cn3cnc4cc(F)ccc43)C2)c1 [compound 116, trans-3-fluoro-5-((S)-2-(3-((5-fluoro-1H-benzo[d]imidazol-1-yl)methyl)cyclobutane-1-carbonyl)isoxazolidin-3-yl)benzonitrile] | 57 nM | 491 nM
Cc1cc(C[C@H]2CC[C@H](C(=O)N3OCCC3c3cnccn3)CC2)c(C)cn1 (stereo in doubt) [compound 356, trans-[4-(2,5-Dimethyl-pyridin-4-ylmethyl)-cyclohexyl]-((S)-3-pyrazin-2-yl-isoxazolidin-2-yl)-methanone] | 26 nM | 5 nM
Cc1nccn1-c1cc(F)cc(C[C@H]2CC[C@H](C(=O)N3OCC[C@H]3c3cncc(F)c3)CC2)c1 [compound 220, trans-[4-[[3-fluoro-5-(2-methylimidazol-1-yl)phenyl]methyl]cyclohexyl]-[(3S)-3-(5-fluoro-3-pyridyl)isoxazolidin-2-yl]methanone] | 26 nM | 12 nM

Stronger by IC50 [1], values ahead:

IC50 [1] | SMILES | IC50 (U937 cells)
5 nM | CNC(=O)c1cc(F)cc(C[C@H]2CC[C@H](C(=O)N3OCC[C@H]3c3ccc(F)cc3)CC2)c1 [compound 165, trans-3-fluoro-5-[[4-[(3S)-3-(4-fluorophenyl)isoxazolidine-2-carbonyl]cyclohexyl]methyl]-N-methyl-benzamide] | 7 nM
24 nM | Cc1nccn1-c1cc(F)cc(C[C@H]2CC[C@H](C(=O)N3OCC[C@H]3c3cc(F)cc(F)c3)CC2)c1 [compound 208, trans-[(3S)-3-(3,5-difluorophenyl)isoxazolidin-2-yl]-[4-[[3-fluoro-5-(2-methylimidazol-1-yl)phenyl]methyl]cyclohexyl]methanone] | 12 nM
9 nM | COCCOc1cnc2ccn(C[C@H]3CC[C@H](C(=O)N4OCC[C@H]4c4cc(F)cc(C#N)c4)CC3)c2c1 [compound 149, trans-3-fluoro-5-[(3S)-2-[4-[[6-(2-methoxyethoxy)pyrrolo[3,2-b]pyridin-1-yl]methyl]cyclohexanecarbonyl]isoxazolidin-3-yl]benzonitrile] | 8 nM
8 nM | NC(=O)c1ccc2c(ccn2C[C@H]2CC[C@H](C(=O)N3OCC[C@H]3c3cnccn3)CC2)c1 [compound 251, trans-1-[[4-[(3S)-3-pyrazin-2-ylisoxazolidine-2-carbonyl]cyclohexyl]methyl]indole-5-carboxamide] | 17 nM
13 nM | O=C([C@H]1CC[C@H](Cc2ccc(CCO)c(F)c2)CC1)N1OCC[C@H]1c1cc(F)cc(F)c1 [compound 280, trans-[(3S)-3-(3,5-difluorophenyl)isoxazolidin-2-yl]-[4-[[3-fluoro-4-(2-hydroxyethyl)phenyl]methyl]cyclohexyl]methanone] | 7 nM
11 nM | N#Cc1cncc([C@@H]2CCON2C(=O)[C@H]2CC[C@H](Cn3ccc4c(F)cc(C#N)cc43)CC2)c1 [compound 130, trans-1-((4-((S)-3-(5-cyanopyridin-3-yl)isoxazolidine-2-carbonyl)cyclohexyl)methyl)-4-fluoro-1H-indole-6-carbonitrile] | 2 nM
